target: T1, GPR84 (Homo sapiens, UniProt Q9NQS5); test: GPR84 [35S]GTPγS binding assay; type: biochemical; settings: 3,3′-diindolylmethane at EC80; membranes from stable cell line over expressing GPR84
T1 construct: expressed in transfected cells
Method: The following assay can be used for determination of GPR84 activation. The [^35S]GTPγS binding assay measures the level of G protein activation following agonist occupation of a GPCR, by determining the binding of the non-hydrolysable analog [^35S]GTPγS to Gα subunits.
The assay is performed in a 96-well plate where the following reagents are added. First 50 μL compound is added into the assay plate, followed by addition of 20 μL 3,3′-diindolylmethane at EC80 concentration (concentration which gives 80% of the activity of GPR84). Then, 30 μL of a mixture consisting of membranes-GTPγS-SpA beads is added [mixture consists of 20 μg/well membranes derived from stable cell line over expressing GPR84 (membranes are pre-incubated with 0.1 μM GDP for 15 min at 4° C.), 0.1 nM [^35S]GTPγS (Perkin Elmer, NEG030) and 0.5 mg/well PVT-WGA SpA beads (Perkin Elmer, RPNQ0001)]. All components are diluted in assay buffer containing 20 mM Tris pH 7.5; 5 mM MgCl2; 250 mM NaCl; 0.05% BSA; 75 μg/mL saponin. After an incubation of 90 min at room temperature, 20 μL CsCl2 0.8 M (MP Biomedicals, 02150589) is added, followed by centrifugation at 2000 rpm during 20 min. Plates are read on a topcount reader (perkin elmer) immediately after centrifugation (readout time, 1 min/well).

T1 sequence (Q9NQS5 whole entry): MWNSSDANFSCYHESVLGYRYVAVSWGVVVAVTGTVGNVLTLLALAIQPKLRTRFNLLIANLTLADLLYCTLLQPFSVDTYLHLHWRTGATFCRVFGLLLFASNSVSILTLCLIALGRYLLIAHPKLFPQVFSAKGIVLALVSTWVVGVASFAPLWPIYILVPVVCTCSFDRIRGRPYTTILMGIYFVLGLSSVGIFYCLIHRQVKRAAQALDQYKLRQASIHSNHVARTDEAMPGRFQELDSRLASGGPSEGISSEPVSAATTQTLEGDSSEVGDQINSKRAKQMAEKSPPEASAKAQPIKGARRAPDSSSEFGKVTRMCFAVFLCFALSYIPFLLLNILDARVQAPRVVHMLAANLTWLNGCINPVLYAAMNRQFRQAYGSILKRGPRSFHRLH

Compound | IC50 [nM]
[2H]C(Oc1ccc2c(c1)CCn1c(OC[C@@H]3COCCO3)c([2H])c(=O)c(C)c1-2)=C(F)F [Compound 105, 3-deuterio-9-(1-deuterio-2,2-difluoro-vinyloxy)-4-[[(2S)-1,4-dioxan-2-yl]methoxy]-1-methyl-6,7-dihydrobenzo[a]quinolizin-2-one] | 0.01 to 100
[2H]C([2H])(Oc1ccc2c(c1)CCn1c(OC[C@@H]3COCCO3)cc(=O)c(C)c1-2)C(F)(F)F [Compound 106, 9-(1,1-dideuterio-2,2,2-trifluoro-ethoxy)-4-[[(2S)-1,4-dioxan-2-yl]methoxy]-1-methyl-6,7-dihydrobenzo[a]quinolizin-2-one] | 0.01 to 100
Cc1c2n(c(OC[C@@H]3COCCO3)cc1=O)CCc1cc(OCCN(C)C)ccc1-2 [Compound 55, 9-(2-dimethylaminoethyloxy)-4-[[(2S)-1,4-dioxan-2-yl]methoxy]-1-methyl-6,7-dihydrobenzo[a]quinolizin-2-one] | 500 to 1000
Cc1c2n(c(OC[C@@H]3COCCO3)cc1=O)CCc1cc(O)ccc1-2 [Compound 85, 4-[[(2S)-1,4-dioxan-2-yl]methoxy]-9-hydroxy-1-methyl-6,7-dihydrobenzo[a]quinolizin-2-one] | 100 to 500
Cc1cccnc1-c1ccc2c(c1)CCn1c(OC[C@@H]3COCCO3)cc(=O)c(C)c1-2 [Compound 102, 4-[[(2S)-1,4-dioxan-2-yl]methoxy]-1-methyl-9-(3-methyl-2-pyridyl)-6,7-dihydrobenzo[a]quinolizin-2-one] | 0.01 to 100
Cc1c2n(c(OC[C@@H]3COCCO3)cc1=O)CCc1cc(C(=O)N(C)C3CC3)ccc1-2 [Compound 88, N-cyclopropyl-4-[[(2)S-1,4-dioxan-2-yl]methoxy]-N,1-dimethyl-2-oxo-6,7-dihydrobenzo[a]quinolizine-9-carboxamide] | > 1000
Cc1c2n(c(OC[C@@H]3COCCO3)cc1=O)CCc1cc(OC3CN(C(=O)C4CC4)C3)ccc1-2 [Compound 118, 9-[1-(cyclopropanecarbonyl)azetidin-3-yl]oxy-4-[[(2S)-1,4-dioxan-2-yl]methoxy]-1-methyl-6,7-dihydrobenzo[a]quinolizin-2-one] | 100 to 500
CCOC(=O)N1CC(c2ccc3c(c2)CCn2c(OC[C@@H]4COCCO4)cc(=O)c(C)c2-3)C1 [Compound 147, ethyl 3-[4-[[(2S)-1,4-dioxan-2-yl]methoxy]-1-methyl-2-oxo-6,7-dihydrobenzo[a]quinolizin-9-yl]azetidine-1-carboxylate] | 0.01 to 100
Cc1c2n(c(OC[C@@H]3COCCO3)cc1=O)CCc1cc(N3CCC[C@H]3C)ccc1-2 [Compound 134, 4-[[(2S)-1,4-dioxan-2-yl]methoxy]-1-methyl-9-[(2R)-2-methylpyrrolidin-1-yl]-6,7-dihydrobenzo[a]quinolizin-2-one] | 0.01 to 100
Cc1c2n(c(OC[C@@H]3COCCO3)cc1=O)CCc1cc(N3CCC(C#N)CC3)ccc1-2 [Compound 122, 1-[4-[[(2)S-1,4-dioxan-2-yl]methoxy]-1-methyl-2-oxo-6,7-dihydrobenzo[a]quinolizin-9-yl]piperidine-4-carbonitrile] | 0.01 to 100
COC1CCN(c2ccc3c(c2)CCn2c(OC[C@@H]4COCCO4)cc(=O)c(C)c2-3)CC1 [Compound 111, 4-[[(2S)-1,4-dioxan-2-yl]methoxy]-9-(4-methoxy-1-piperidyl)-1-methyl-6,7-dihydrobenzo[a]quinolizin-2-one] | 0.01 to 100
Cc1c2n(c(OC[C@@H]3COCCO3)cc1=O)CCc1cc(OC3CCN(C(=O)OC(C)(C)C)C3)ccc1-2 (stereo partly drawn) [Compound 127, tert-butyl 3-[[4-[[(2S)-1,4-dioxan-2-yl]methoxy]-1-methyl-2-oxo-6,7-dihydrobenzo[a]quinolizin-9-yl]oxy]pyrrolidine-1-carboxylate] | 0.01 to 100
COc1cc2c(cc1OC)-c1cc(=O)cc(NCC3COCCO3)n1CC2 (stereo not shown) [Compound 5, 4-[([1,4]Dioxan-2-ylmethyl)-amino]-9,10-dimethoxy-6,7-dihydro-pyrido[2,1-a]isoquinolin-2-one] | > 1000
Cc1c2n(c(OC[C@@H]3COCCO3)cc1=O)CCc1cc(C(=O)NC3CC3)ccc1-2 [Compound 84, N-cyclopropyl-4-[[(2S)-1,4-dioxan-2-yl]methoxy]-1-methyl-2-oxo-6,7-dihydrobenzo[a]quinolizine-9-carboxamide] | > 1000
COC(=O)C1CN(c2ccc3c(c2)CCn2c(OC[C@@H]4COCCO4)cc(=O)c(C)c2-3)C1 [Compound 97] | 100 to 500
Cc1c2n(c(OC[C@@H]3COCCO3)cc1=O)CCc1cc(-c3cccc(F)c3)ccc1-2 [Compound 99, 4-[[(2S)-1,4-dioxan-2-yl]methoxy]-9-(3-fluorophenyl)-1-methyl-6,7-dihydrobenzo[a]quinolizin-2-one] | 0.01 to 100

Compound | IC50 [nM]
Cc1c2n(c(OC[C@@H]3COCCO3)cc1=O)CCc1cc(C3CN(C(=O)C4CC4)C3)ccc1-2 [Compound 146, 9-[1-(cyclopropanecarbonyl)azetidin-3-yl]-4-[[(2S)-1,4-dioxan-2-yl]methoxy]-1-methyl-6,7-dihydrobenzo[a]quinolizin-2-one] | 500 to 1000
Cc1c2n(c(OC[C@@H]3COCCO3)cc1=O)CCc1cc(OC(F)F)ccc1-2 [Compound 59, 9-(difluoromethoxy)-4-[[(2S)-1,4-dioxan-2-yl]methoxy]-1-methyl-6,7-dihydrobenzo[a]quinolizin-2-one] | 0.01 to 100
Cc1c2n(c(OC[C@@H]3COCCO3)cc1=O)CCc1cc(NCC(F)(F)F)ccc1-2 [Compound 142, 4-[[(2S)-1,4-dioxan-2-yl]methoxy]-1-methyl-9-(2,2,2-trifluoroethylamino)-6,7-dihydrobenzo[a]quinolizin-2-one] | 0.01 to 100
Cc1c2n(c(OC[C@@H]3COCCO3)cc1=O)CCc1cc(C3CN(C(=O)N(C)C)C3)ccc1-2 [Compound 148, 3-[4-[[(2S)-1,4-dioxan-2-yl]methoxy]-1-methyl-2-oxo-6,7-dihydrobenzo[a]quinolizin-9-yl]-N,N-dimethyl-azetidine-1-carboxamide] | 500 to 1000
Cc1c2n(c(OC[C@@H]3COCCO3)cc1=O)CCc1cc(N3CCC(c4ccc(F)cc4)CC3)ccc1-2 [Compound 117, 4-[[(2S)-1,4-dioxan-2-yl]methoxy]-9-[4-(4-fluorophenyl)-1-piperidyl]-1-methyl-6,7-dihydrobenzo[a]quinolizin-2-one] | 0.01 to 100
Cc1c2n(c(OC[C@@H]3COCCO3)cc1=O)CCc1cc(N3CCC(C(=O)N4CCCCC4)CC3)ccc1-2 [Compound 112, 4-[[(2S)-1,4-dioxan-2-yl]methoxy]-1-methyl-9-[4-(piperidine-1-carbonyl)-1-piperidyl]-6,7-dihydrobenzo[a]quinolizin-2-one] | 0.01 to 100
Cc1c2n(c(OC[C@@H]3COCCO3)cc1=O)CCc1cc(OC3CCN(C(=O)C4CC4)C3)ccc1-2 (stereo partly drawn) [Compound 144, 9-[1-(cyclopropanecarbonyl)pyrrolidin-3-yl]oxy-4-[[(2S)-1,4-dioxan-2-yl]methoxy]-1-methyl-6,7-dihydrobenzo[a]quinolizin-2-one] | 100 to 500
Cc1ccnc(-c2ccc3c(c2)CCn2c(OC[C@@H]4COCCO4)cc(=O)c(C)c2-3)c1 [Compound 103, 4-[[(2S)-1,4-dioxan-2-yl]methoxy]-1-methyl-9-(4-methyl-2-pyridyl)-6,7-dihydrobenzo[a]quinolizin-2-one] | 0.01 to 100
Cc1c2n(c(OC[C@@H]3COCCO3)cc1=O)CCc1cc(OCCF)ccc1-2 [Compound 159, 4-[[(2S)-1,4-dioxan-2-yl]methoxy]-9-(2-fluoroethoxy)-1-methyl-6,7-dihydrobenzo[a]quinolizin-2-one] | 0.01 to 100
Cc1c2n(c(OC[C@@H]3COCCO3)cc1=O)CCc1cc(C3CN(C(=O)NC(C)C)C3)ccc1-2 [Compound 149, 3-[4-[[(2S)-1,4-dioxan-2-yl]methoxy]-1-methyl-2-oxo-6,7-dihydrobenzo[a]quinolizin-9-yl]-N-isopropyl-azetidine-1-carboxamide] | 500 to 1000
Cc1c2n(c(OC[C@@H]3COCCO3)cc1=O)CCc1cc(OC3CN(C(=O)OC(C)(C)C)C3)ccc1-2 [Compound 104, tert-butyl 3-[[4-[[(2S)-1,4-dioxan-2-yl]methoxy]-1-methyl-2-oxo-6,7-dihydrobenzo[a]quinolizin-9-yl]oxy]azetidine-1-carboxylate] | 0.01 to 100
Cc1c2n(c(OCC3CCCCO3)cc1=O)CCc1cc(OCCN(C)C)ccc1-2 (stereo not shown) [Compound 54, 9-(2-dimethylaminoethyloxy)-1-methyl-4-(tetrahydropyran-2-ylmethoxy)-6,7-dihydrobenzo[a]quinolizin-2-one] | 500 to 1000
Cc1c2n(c(OC[C@@H]3COCCO3)cc1=O)CCc1cc(N3CCCC(F)C3)ccc1-2 (stereo partly drawn) [Compound 135, 4-[[(2S)-1,4-dioxan-2-yl]methoxy]-9-(3-fluoro-1-piperidyl)-1-methyl-6,7-dihydrobenzo[a]quinolizin-2-one] | 0.01 to 100
Cc1c2n(c(OC[C@@H]3COCCO3)cc1=O)CCc1cc(N3CCC(C)(C)CC3)ccc1-2 [Compound 139, 9-(4,4-dimethyl-1-piperidyl)-4-[[(2S)-1,4-dioxan-2-yl]methoxy]-1-methyl-6,7-dihydrobenzo[a]quinolizin-2-one] | 0.01 to 100
Cc1c2n(c(OCC3CCCO3)cc1=O)CCc1cc(OCCN(C)C)ccc1-2 (stereo not shown) [Compound 53, 9-(2-dimethylaminoethyloxy)-1-methyl-4-(tetrahydrofuran-2-ylmethoxy)-6,7-dihydrobenzo[a]quinolizin-2-one] | > 1000

From patent publication US10568879B2 (GALAPAGOS NV, priority 2015, dated 2020)
